Experimental data as given in US12532884B2, “Fungicidal compositions” (SYNGENTA CROP PROTECTION AG, priority 2020, dated 2026).
Where two headings read alike, the source gives them in different places.

Legend:
Phakopsora pachyrhizi = test: Example D: preventative activity against Phakopsora pachyrhizi on soybean (whole plants sprayed, leaf disks inoculated); type: in vivo
Source text: (§1) Certain mixture compositions comprising a compound of formula (I) described above may show a synergistic effect. This occurs whenever the action of an active ingredient combination is greater than the sum of the actions of the individual components. The action to be expected E for a given active ingredient combination obeys the so-called COLBY formula and can be calculated as follows (COLBY, S. R. “Calculating synergistic and antagonistic responses of herbicide combination”. Weeds, Vol. 15, pages 20-22; 1967): • ppm=milligrams of active ingredient (=a.i.) per liter of spray mixture • X=% action by active ingredient A) using p ppm of active ingredient • Y=% action by active ingredient B) using q ppm of active ingredient.
(§2) According to COLBY, the expected (additive) action of active ingredients A)+B) using p+q ppm of active ingredient is:
(§3) If the action actually observed (O) is greater than the expected action (E), then the action of the combination is super-additive, i.e. there is a synergistic effect. In mathematical terms, synergism corresponds to a positive value for the difference of (O-E). In the case of purely complementary addition of activities (expected activity), said difference (O-E) is zero. A negative value of said difference (O-E) signals a loss of activity compared to the expected activity.
Whole soybean plants are treated with the recited active ingredients 4 weeks after planting. 1 day after spraying leaf disks are cut from the first trifoliate leaf. Five repetitions at each rate are conducted. The leaf disks are inoculated with Phakopsora pachyrhizi (Asian soybean rust) one day after treatment. Evaluation of the leaf disks is conducted 11 to 14 days after inoculation and the activity is derived from the relation of the treated vs untreated, infested check. (100=no disease, no damage to the leaf, 0=high infestation, leaf damaged heavily). The rates of the active ingredients used are given in the tables as g active ingredient (a.i.)/ha.

Septoria glycines = test: Example C3: mixtures against Septoria glycines (brown spot), liquid culture; type: cell-based; details: for inhibition at 0.3 ppm / inhibition at 0.1 ppm: Septoria glycines, read-out: Activity (%)
Source text: This occurs whenever the action of an active ingredient combination is greater than the sum of the actions of the individual components. The action to be expected E for a given active ingredient combination obeys the so-called COLBY formula and can be calculated as follows (COLBY, S. R. “Calculating synergistic and antagonistic responses of herbicide combination”. Weeds, Vol. 15, pages 20-22; 1967): • ppm=milligrams of active ingredient (=a.i.) per liter of spray mixture • X=% action by active ingredient A) using p ppm of active ingredient • Y=% action by active ingredient B) using q ppm of active ingredient.
as §2, §3
Mycelia fragments or conidia suspensions of a fungus prepared either freshly from liquid cultures of the fungus or from cryogenic storage, are directly mixed into nutrient broth. DMSO solutions of the test compound (max. 10 mg/mL) are diluted with 0.025% Tween20 by a factor of 50 and 10 μl of this solution is pipetted into a microtiter plate (96-well format). […] The test plates are incubated in the dark at 24° C. and 96% relative humidity. The inhibition of fungal growth is determined photometrically after 2 to 7 days, depending on the pathosystem, and percent antifungal activity relative to the untreated check is calculated.
Conidia of the fungus harvested from a fresh culture grown on artificial media, were directly mixed into nutrient broth (PDB potato dextrose broth). A DMSO solution of the test compounds was placed into a microtiter plate (96-well format) and the nutrient broth containing the fungal spores was added to it.
Fungicidal activity was evaluated on a 100-0 scale (100=no disease growth; 0=well completely covered by mycelium).

Septoria tritici = test: Example C2: mixtures against Septoria tritici (leaf blotch), liquid culture; type: cell-based; details: for inhibition at 0.3 ppm: read-out: Activity (%)
Source text: as §1, §2, §3
Mycelia fragments or conidia suspensions of a fungus prepared either freshly from liquid cultures of the fungus or from cryogenic storage, are directly mixed into nutrient broth. DMSO solutions of the test compound (max. 10 mg/mL) are diluted with 0.025% Tween20 by a factor of 50 and 10 μl of this solution is pipetted into a microtiter plate (96-well format). The nutrient broth containing the fungal spores/mycelia fragments is then added to give an end concentration of the tested compound. The test plates are incubated in the dark at 24° C. and 96% relative humidity. The inhibition of fungal growth is determined photometrically after 2 to 7 days, depending on the pathosystem, and percent antifungal activity relative to the untreated check is calculated.
Conidia of the fungus from cryogenic storage were directly mixed into nutrient broth (PDB potato dextrose broth). A DMSO solution of the test compounds was placed into a microtiter plate (96-well format) and the nutrient broth containing the fungal spores was added to it.
The following mixture compositions at the reported concentration (in ppm) in tables C2-3 to C2-5 gave the following disease control in this test Septoria tritici (leaf blotch). Fungicidal activity was evaluated on a 100-0 scale (100=no disease growth; 0=well completely covered by mycelium).

[1] = Phakopsora pachyrhizi, foliar, applied alone, 22.5 g/ha, read-out: Observed Activity (% of untreated)
[2] = Phakopsora pachyrhizi, foliar, applied alone, 45 g/ha, read-out: Observed Activity (% of untreated)
[3] = single component, 0.3 ppm, 100-0 scale (100=no disease growth)
[4] = single component, 0.1 ppm, 100-0 scale (100=no disease growth)
[5] = Phakopsora pachyrhizi, foliar, applied alone, 4.5 g/ha, read-out: Observed Activity (% of untreated)
[6] = Phakopsora pachyrhizi, foliar, applied alone, 9 g/ha, read-out: Observed Activity (% of untreated)
[7] = Phakopsora pachyrhizi, foliar, applied alone, 18 g/ha, read-out: Observed Activity (% of untreated)
[8] = Phakopsora pachyrhizi, foliar, single active ingredient, 4.5 g/ha, read-out: Observed Activity (%)
[9] = Phakopsora pachyrhizi, foliar, single active ingredient, 9 g/ha, read-out: Observed Activity (%)
[10] = Phakopsora pachyrhizi, foliar, single active ingredient, 18 g/ha, read-out: Observed Activity (%)
[11] = single active ingredient, 4.5 g/ha
[12] = single active ingredient, 9 g/ha
[13] = single active ingredient, 18 g/ha
[14] = single component, 0.3 ppm, 100-0 scale
[15] = Phakopsora pachyrhizi, foliar, applied alone, read-out: Observed Activity (% of untreated)
[16] = Phakopsora pachyrhizi, foliar, single active ingredient, soybean, preventative, 100=no disease, read-out: Observed Activity (%)
[17] = Zymoseptoria tritici, single component, 0.3 ppm, 100-0 scale

## OC(Cc1ccccc1Cl)(Cn1nc[nH]c1=S)C1(Cl)CC1 (centres unmarked) [Prothioconazole]
Phakopsora pachyrhizi; [1]
  inhibition at 22.5 g/ha: 74%
Phakopsora pachyrhizi; [2]
  inhibition at 45 g/ha: 76%

## CCOC(=O)C1CC(=O)C(=C(O)C2CC2)C(=O)C1 (centres unmarked) [trinexapac-ethyl]
Septoria glycines; [3]
  inhibition at 0.3 ppm: 0%

## CC(C)(C)[C@@H](O)[C@@H](Cc1ccc(Cl)cc1)n1cncn1 (racemic) [paclobutrazol]
Septoria glycines; [4]
  inhibition at 0.1 ppm: 0%
Septoria glycines; [3]
  inhibition at 0.3 ppm: 50%

## N#Cc1c[nH]cc1-c1cccc2c1OC(F)(F)O2 [fludioxonil]
Septoria tritici; Zymoseptoria tritici
  inhibition at 0.3 ppm: 20%
Septoria glycines
  inhibition at 0.1 ppm: 0%
  inhibition at 0.3 ppm: 20%

## COC(=O)N(OC)c1ccccc1COc1ccn(-c2ccc(Cl)cc2)n1 [Pyraclostrobin]
Phakopsora pachyrhizi; [5]
  inhibition at 4.5 g/ha: 1%
Phakopsora pachyrhizi; [6]
  inhibition at 9 g/ha: 1%
Phakopsora pachyrhizi; [7]
  inhibition at 18 g/ha: 0%
Phakopsora pachyrhizi; [8]
  inhibition at 4.5 g/ha: 1%
Phakopsora pachyrhizi; [9]
  inhibition at 9 g/ha: 1%
Phakopsora pachyrhizi; [10]
  inhibition at 18 g/ha: 0%

## CO/C=C(/C(=O)OC)c1ccccc1Oc1cc(Oc2ccccc2C#N)ncn1 [Azoxystrobin]
Phakopsora pachyrhizi; applied alone, 2.25 g/ha
  Observed Activity (% of untreated): 0%
Phakopsora pachyrhizi; applied alone, 4.5 g/ha
  Observed Activity (% of untreated): 15%
Phakopsora pachyrhizi; applied alone, 9 g/ha
  Observed Activity (% of untreated): 23%
Phakopsora pachyrhizi; applied alone, 18 g/ha
  Observed Activity (% of untreated): 9%
Phakopsora pachyrhizi; [11]
  Observed Activity (%): 0%
Phakopsora pachyrhizi; [12]
  Observed Activity (%): 2%
Phakopsora pachyrhizi; [13]
  Observed Activity (%): 26%

## CCCCC(O)(Cn1cncn1)c1ccc(Cl)cc1Cl (centres unmarked) [hexaconazole]
Septoria tritici; Zymoseptoria tritici, single component, 0.1 ppm, 100-0 scale (100=no disease growth)
  inhibition at 0.1 ppm: 70%

## S1SSSSSSS1 [sulphur]
Septoria glycines; [3]
  inhibition at 0.3 ppm: 0%

## O=C(NCCc1ncc(C(F)(F)F)cc1Cl)c1ccccc1C(F)(F)F [fluopyram]
Septoria glycines; [4]
  inhibition at 0.1 ppm: 0%
Septoria glycines; [3]
  inhibition at 0.3 ppm: 50%

## OC(Cn1cncn1)(c1ccc(F)cc1)c1ccccc1F (centres unmarked) [flutriafol]
Septoria glycines; [4]
  inhibition at 0.1 ppm: 20%
Septoria glycines; [3]
  inhibition at 0.3 ppm: 70%

## CON=C(C(=O)OC)c1ccccc1CON=C(C)c1cccc(C(F)(F)F)c1 [Trifloxystrobin]
Phakopsora pachyrhizi; Phakopsora pachyrhizi, foliar, applied alone, 2.25 g/ha, read-out: Observed Activity (% of untreated)
  inhibition at 2.25 g/ha: 0%
Phakopsora pachyrhizi; [5]
  inhibition at 4.5 g/ha: 3%
Phakopsora pachyrhizi; [6]
  inhibition at 9 g/ha: 0%
Phakopsora pachyrhizi; [7]
  inhibition at 18 g/ha: 19%
Phakopsora pachyrhizi; [8]
  inhibition at 4.5 g/ha: 0%
Phakopsora pachyrhizi; [9]
  inhibition at 9 g/ha: 1%
Phakopsora pachyrhizi; [10]
  inhibition at 18 g/ha: 33%

## CC1(C)N=C(c2cnc3ccccc3c2)c2ccccc2C1(F)F [quinofumelin]
Septoria tritici; [14]
  Activity (%): 0%

## CC(Cc1ccc(C(C)(C)C)cc1)CN1CCCCC1 (centres unmarked) [Fenpropidin, reference compound]
Septoria glycines; [4]
  inhibition at 0.1 ppm: 0%
Septoria glycines; [3]
  inhibition at 0.3 ppm: 50%
Phakopsora pachyrhizi; [15]
  inhibition at 225 g/ha: 64%
  inhibition at 450 g/ha: 61%
  inhibition at 900 g/ha: 82%
Phakopsora pachyrhizi; [16]
  inhibition at 225 g/ha: 64%
  inhibition at 450 g/ha: 61%
  inhibition at 900 g/ha: 82%

## CC1COC(Cn2cncn2)(c2ccc(Oc3ccc(Cl)cc3)cc2Cl)O1 (centres unmarked) [Difenoconazole]
Phakopsora pachyrhizi; [1]
  inhibition at 22.5 g/ha: 0%
Phakopsora pachyrhizi; [2]
  inhibition at 45 g/ha: 0%

## CC(C)C1C2CCC1c1c(NC(=O)c3cn(C)nc3C(F)F)cccc12 (centres unmarked) [isopyrazam]
Septoria tritici; [4]
  Activity (%): 50%
Septoria tritici; [14]
  Activity (%): 70%
Septoria glycines; single component, 0.1 ppm
  Activity (%): 70%
Septoria glycines; [4]
  Activity (%): 70%
Septoria glycines; single component, 0.3 ppm
  Activity (%): 70%
Septoria glycines; [3]
  Activity (%): 70%

## CCCC1COC(Cn2cncn2)(c2ccc(Cl)cc2Cl)O1 (centres unmarked) [propiconazole]
Septoria tritici; [17]
  inhibition at 0.3 ppm: 70%

## Cc1cccc(-n2nnn(C)c2=O)c1COc1ccn(-c2ccc(Cl)cc2)n1 [Metyltetraprole]
Phakopsora pachyrhizi; applied alone, 9 g/ha
  Observed Activity (% of untreated): 2%
Phakopsora pachyrhizi; applied alone, 18 g/ha
  Observed Activity (% of untreated): 2%
Phakopsora pachyrhizi; [12]
  Observed Activity (%): 2%
Phakopsora pachyrhizi; [13]
  Observed Activity (%): 2%

## CNC(=O)C(=N/OC)/C(C)=C\COc1ccn(-c2ccc(Cl)cc2Cl)n1 [(Z,2E)-5-[1-(2,4-dichlorophenyl)pyrazol-3-yl]oxy-2-methoxyimino-N,3-dimethyl-pent-3-enamide]
Phakopsora pachyrhizi; [6]
  inhibition at 9 g/ha: 2%
Phakopsora pachyrhizi; [7]
  inhibition at 18 g/ha: 3%
Phakopsora pachyrhizi; [9]
  inhibition at 9 g/ha: 2%
Phakopsora pachyrhizi; [10]
  inhibition at 18 g/ha: 3%

## Cn1cc(C(=O)Nc2cccc3c2[C@@H]2CC[C@H]3C2=C(Cl)Cl)c(C(F)F)n1 (racemic) [Benzovindiflupyr]
Phakopsora pachyrhizi; applied alone, 2.25 g/ha
  Observed Activity (% of untreated): 92%
Phakopsora pachyrhizi; applied alone, 4.5 g/ha
  Observed Activity (% of untreated): 94%
Phakopsora pachyrhizi; single active ingredient, 2.25 g/ha
  Observed Activity (%): 92%
Phakopsora pachyrhizi; [11]
  Observed Activity (%): 94%

## CC(C)(C)C(O)(CCc1ccc(Cl)cc1)Cn1cncn1 (centres unmarked) [tebuconazole]
Septoria glycines; [4]
  inhibition at 0.1 ppm: 70%

## CC(C1CC1)C(O)(Cn1cncn1)c1ccc(Cl)cc1 (centres unmarked) [cyproconazole]
Septoria tritici; [17]
  inhibition at 0.3 ppm: 50%
Septoria glycines; [4]
  inhibition at 0.1 ppm: 20%

## CC(C1CC1)C(O)(Cn1cncn1)c1ccc(Cl)cc1 (centres unmarked) [Cyproconazole]
Phakopsora pachyrhizi; [1]
  inhibition at 22.5 g/ha: 51%
Phakopsora pachyrhizi; [2]
  inhibition at 45 g/ha: 52%

## Cn1cc(C(=O)Nc2ccccc2-c2cc(F)c(F)c(F)c2)c(C(F)F)n1 [fluxapyroxad]
Septoria glycines; single component, 0.1 ppm
  Activity (%): 50%
Septoria glycines; [4]
  Activity (%): 50%
Septoria glycines; single component, 0.3 ppm
  Activity (%): 70%
Septoria glycines; [3]
  Activity (%): 70%

## CC(Cc1ccc(C(C)(C)C)cc1)CN1C[C@@H](C)O[C@@H](C)C1 (some centres unmarked) [Fenpropimorph, reference compound]
Septoria glycines; [4]
  inhibition at 0.1 ppm: 50%
Septoria glycines; [3]
  inhibition at 0.3 ppm: 70%
Phakopsora pachyrhizi; [15]
  inhibition at 225 g/ha: 8%
  inhibition at 450 g/ha: 43%
  inhibition at 900 g/ha: 76%
Phakopsora pachyrhizi; [16]
  inhibition at 225 g/ha: 8%
  inhibition at 450 g/ha: 43%
  inhibition at 900 g/ha: 76%

## CON(C(=O)c1cn(C)nc1C(F)F)C(C)Cc1c(Cl)cc(Cl)cc1Cl (centres unmarked) [Pydiflumetofen]
Phakopsora pachyrhizi; applied alone, 22.5 g/ha
  Observed Activity (% of untreated): 0%
Phakopsora pachyrhizi; applied alone, 45 g/ha
  Observed Activity (% of untreated): 4%
